According to patent US20250121025A1, “SCALP-DERIVED PEPTIDES ALLEVIATING HAIR LOSS SYMPTOMS” (NEWTREE CO., LTD, priority 2023, published 2025):

Legend:
[1] = system: mitochondrial apoptosis signaling pathway proteins (Bax, Bcl-2, Caspase-3, and PARP); experiment: Western blot of mitochondrial apoptosis signaling proteins in DP cells; type: cell-based, human; details: 0.1, 1, 10 μM, 24 hours
Procedure: (§1) Mitochondrial apoptosis: Bax is a pro-apoptotic protein that promotes apoptosis, and Bcl-2 is a pro-survival protein that suppresses apoptosis; the balance between these two proteins is important in regulating apoptosis.
(§2) Specifically, the expressions of proteins involved in mitochondrial apoptotic signaling pathways were analyzed when HaCaT and DP cells were treated with RKLW and RQLW at 0.1, 1, and 10 μM and cultured for 24 hours, and the results are shown in FIG. 7.

[2] = system: androgen receptor (AR) and its target proteins (DKK-1 and TGF-β); experiment: Western blot of AR and its target proteins in HaCaT cells; type: cell-based, human; details: 0.1, 1, 10 μM, 24 hours
Procedure: (§3) The expression and phosphorylation of protein markers involved in alopecia-related signal transduction pathways were evaluated after treatment with peptides (RKLW and RQLW).
(§4) DHT-AR and Wnt/beta-catenin pathway: An androgen receptor (AR) is a protein that binds to dihydrotestosterone (DHT), a representative inducer of androgenetic alopecia, and when the AR is activated by binding to DHT, Dickkopf-1 (DKK-1) and transforming growth factor beta (TGF-β) are expressed and promote alopecia. In addition, DKK-1, which is expressed by the activation of the AR, suppresses the Wnt signaling pathway involved in the development and growth of hair follicles, and TGF-β induces alopecia by suppressing the growth of hair follicle cells.
(§5) Specifically, the expressions of proteins involved in major signaling pathways related to hair growth were analyzed when HaCaT and DP cells were treated with RKLW and RQLW at 0.1, 1, and 10 μM and cultured for 24 hours.
(§6) The protein immunoblot (Western blot) results of the expression of the AR and its target proteins (DKK-1 and TGF-β) in HaCaT and DP cells are shown in FIG. 5. […] When DP cells were treated with RKLW or RQLW, the expression levels of both the AR and its target protein TGF-β was reduced.

[3] = system: cell cycle marker proteins (Cyclin D1, CDK4, Cyclin E1, and CDK2); experiment: Western blot of cell cycle marker proteins in DP cells; type: cell-based, human; details: 0.1, 1, 10 μM, 24 hours
Procedure: (§7) Cell cycle: maintaining the G1 phase of the cell cycle of scalp skin cells plays an important role in maintaining scalp health.
(§8) Specifically, the expressions of Cyclin D/CDK4 and Cyclin E/CDK2, which activate the G1 phase, were analyzed when HaCaT and DP cells were treated with RKLW and RQLW at 0.1, 1, and 10 µM and cultured for 24 hours, and the results are shown in FIG. 8.

[4] = system: mitochondrial apoptosis signaling pathway proteins (Bax, Bcl-2, Caspase-3, and PARP); experiment: Western blot of mitochondrial apoptosis signaling proteins in HaCaT cells; type: cell-based, human; details: 0.1, 1, 10 μM, 24 hours
Procedure: as §1, §2

[5] = system: Wnt signaling pathway proteins (p-GSK-3β and β-catenin); experiment: Western blot of Wnt signaling pathway proteins in HaCaT cells; type: cell-based, human; details: 0.1, 1, 10 μM, 24 hours
Procedure: as §5
(§9) Furthermore, the protein immunoblot (Western blot) results showing differential expressions and phosphorylation of proteins involved in Wnt signaling pathway in HaCaT and DP cells are shown in FIG. 6. […] When DP cells were treated with RKLW or RQLW, the expression of p-GSK-3β was not increased, but the expression of β-catenin was increased, meaning that in DP cells, RKLW or RQLW accumulates β-catenin through a pathway other than GSK-3β to activate Wnt signaling.

[6] = system: Wnt signaling pathway proteins (p-GSK-3β and β-catenin); experiment: Western blot of Wnt signaling pathway proteins in DP cells; type: cell-based, human; details: 0.1, 1, 10 μM, 24 hours
Procedure: as §5, §9

[7] = system: androgen receptor (AR) and its target proteins (DKK-1 and TGF-β); experiment: Western blot of AR and its target proteins in DP cells; type: cell-based, human; details: 0.1, 1, 10 μM, 24 hours
Procedure: as §3, §4, §5, §6

HaCaT cells = experiment: Cell viability (CCK-8) in human keratinocytes; type: cell-based
Procedure: (§10) In order to evaluate the efficacy of peptide treatment (RKLW and RQLW) to promote skin cell proliferation, human keratinocytes and dermal papilla (DP) cells were treated with RKLW and RQLW at 0.1, 1, and 10 μM. After being cultured for 24 and 48 hours, cells were treated with Cell Counting Kit-8 (CCK-8) to measure cell viability, and the results are shown in FIG. 3.

[8] = system: dermal papilla (DP) cells; experiment: Cell viability (CCK-8) in dermal papilla cells; type: cell-based, human
Procedure: as §10

[9] = system: cell cycle marker proteins (Cyclin D1, CDK4, Cyclin E1, and CDK2); experiment: Western blot of cell cycle marker proteins in HaCaT cells; type: cell-based, human; details: 0.1, 1, 10 μM, 24 hours
Procedure: as §7, §8

| Substance | expression ratio of Bax/Bcl-2 [1] | AR expression [2] | expression level of DKK-1 [2] | expression level of TGF-β [2] | expression level of Cyclin D/CDK4 [3] | expression level of Cyclin E/CDK2 [3] | effect of suppressing apoptosis [4] | expression level of p-GSK-3β [5] | expression level of β-catenin [5] | expression of p-GSK-3β [6] | expression of β-catenin [6] | expression level of AR [7] | expression level of TGF-β [7] | cell viability of dermal papilla cells ([8]; 1 and 10 μM, 24 hours) | expression level of Cyclin D/CDK4 [9] | expression level of Cyclin E/CDK2 [9] | also measured |
| --- | --- | --- | --- | --- | --- | --- | --- | --- | --- | --- | --- | --- | --- | --- | --- | --- | --- |
| RKLW (listed as Homo sapiens) | unable to regulate | no significant change | decreased | decreased | increased | did not affect | relatively insignificant effect | increased | increased | not increased | increased | reduced | reduced | significantly increased cell viability | increased | increased | cell viability of HaCaT cells (HaCaT cells; 24 and 48 hours, CCK-8): did not show statistical significance; treatment concentration at which cell viability was significantly increased ([8]; 48 hours): ≤ 10 µM |
| RQLW (listed as Homo sapiens) | unable to regulate | no significant change | decreased | decreased | increased | did not affect | showed an effect of suppressing apoptosis | increased | increased | not increased | increased | reduced | reduced | significantly increased cell viability | increased | increased | expression ratio of Bax/Bcl-2 [4]: tended to decrease; protein level of PARP [4]: tended to decrease; protein level of cleaved caspase-3 [4]: tended to decrease; concentration at which cell viability was significantly increased (HaCaT cells; after 24 hours): ≥ 100 µM; concentration at which cell viability was significantly increased (HaCaT cells; after 48 hours): ≥ 10 µM; cell viability of dermal papilla cells ([8]; 48 hours): no significant difference |
